Patent US7271181B2, “Inhibitors of p38” (Vertex Pharmaceuticals Incorporated, priority 2001, dated 2007)
pIC50, pKi: −log10 of the molar value.

Legend:
activated p38 [1] = molecular target: T1, activated p38 (Homo sapiens, UniProt Q16539); assay: p38 inhibition assay: inhibition of phosphorylation of EGF receptor peptide; format: biochemical; conditions: activated p38 5 nM, EGF receptor peptide 200 μM, ATP 100 μM, 30° C, 30 minutes
T1 construct: amplify the coding region of CSBP2 cDNA using a HeLa cell library; made in house; host or cells: Trichoplusia ni (Tn-368) High-Five insect cells, baculovirus (virus generated in Sf9)
Protocol: A. Inhibition of Phosphorylation of EGF Receptor Peptide
This assay was carried out in the presence of 10 mM MgCl2, 25 mM β-glycerophosphate, 10% glycerol and 100 mM HEPES buffer at pH 7.6. For a typical IC50 determination, a stock solution was prepared containing all of the above components and activated p38 (5 nM). The stock solution was aliquotted into vials. A fixed volume of DMSO or inhibitor in DMSO (final concentration of DMSO in reaction was 5%) was introduced to each vial, mixed and incubated for 15 minutes at room temperature. EGF receptor peptide, […], a phosphoryl acceptor in p38-catalyzed kinase reaction (1), was added to each vial to a final concentration of 200 μM. The kinase reaction was initiated with ATP (100 μM) and the vials were incubated at 30° C. After 30 minutes, the reactions were quenched with equal volume of 10% trifluoroacetic acid (TFA).
The phosphorylated peptide was quantified by HPLC analysis. Separation of phosphorylated peptide from the unphosphorylated peptide was achieved on a reverse phase column (Deltapak, 5 μm, C18 100D, Part no. 011795) with a binary gradient of water and acteonitrile, each containing 0.1% TFA. IC50 (concentration of inhibitor yielding 50% inhibition) was determined by plotting the percent (%) activity remaining against inhibitor concentration.

activated p38 [2] = molecular target: T1, activated p38; assay: p38 inhibition assay: inhibition of ATPase activity; format: biochemical; conditions: ATPase activity of activated p38 (60 nM), various ATP concentrations
Protocol: B. Inhibition of ATPase Activity
This assay is carried out in the presence of 10 mM MgCl2, 25 mM β-glycerophosphate, 10% glycerol and 100 mM HEPES buffer at pH 7.6. For a typical Ki determination, the Km for ATP in the ATPase activity of activated p38 reaction is determined in the absence of inhibitor and in the presence of two concentrations of inhibitor. A stock solution is prepared containing all of the above components and activated p38 (60 nM). The stock solution is aliquotted into vials. A fixed volume of DMSO or inhibitor in DMSO (final concentration of DMSO in reaction was 2.5%) is introduced to each vial, mixed and incubated for 15 minutes at room temperature. The reaction is initiated by adding various concentrations of ATP and then incubated at 30° C. After 30 minutes, the reactions are quenched with 50 μl of EDTA (0.1 M, final concentration), pH 8.0. The product of p38 ATPase activity, ADP, is quantified by HPLC analysis.
Separation of ADP from ATP is achieved on a reversed phase column (Supelcosil, LC-18, 3 μm, part no. 5-8985) using a binary solvent gradient of following composition: Solvent A—0.1 M phosphate buffer containing 8 mM tetrabutylammonium hydrogen sulfate (Sigma Chemical Co., catalogue no. T-7158), Solvent B—Solvent A with 30% methanol.
Ki is determined from the rate data as a function of inhibitor and ATP concentrations.

T1 sequence (Q16539 whole entry): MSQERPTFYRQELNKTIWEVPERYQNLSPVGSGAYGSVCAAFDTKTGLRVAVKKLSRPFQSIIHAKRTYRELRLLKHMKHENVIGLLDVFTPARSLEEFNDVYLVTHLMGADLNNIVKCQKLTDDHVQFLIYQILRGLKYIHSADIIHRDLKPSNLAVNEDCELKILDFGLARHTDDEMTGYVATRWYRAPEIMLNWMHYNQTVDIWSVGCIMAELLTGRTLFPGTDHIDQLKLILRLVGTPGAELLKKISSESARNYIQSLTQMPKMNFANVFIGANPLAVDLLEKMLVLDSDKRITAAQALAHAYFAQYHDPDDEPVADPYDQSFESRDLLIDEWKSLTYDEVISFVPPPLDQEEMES

O=C(c1ccc(Cl)cc1)c1ccc(Nc2c(F)cccc2F)nc1 [Compound 112]
pIC50 (activated p38 [1]): ≥ 6.00

Cc1occc1C(=O)c1ccc(Nc2c(F)cccc2F)nc1 [Compound 117]
pIC50 (activated p38 [1]): ≥ 6.00

N#Cc1ccc(C(=O)c2ccc(Nc3c(F)cccc3F)nc2)cc1 [Compound 103]
pIC50 (activated p38 [1]): 5.00 to 6.00

Cc1cccc(C(=O)c2ccc(N(C(=O)C3CCCCC3)c3c(F)cccc3F)nc2)c1 [Compound 607]
pIC50 (activated p38 [1]): ≥ 6.00

CCOC(=O)C(=O)N(c1ccc(C(=O)c2ccc(Cl)c(C)c2)cn1)c1c(F)cccc1F [Compound 618]
pIC50 (activated p38 [1]): 5.00 to 6.00

NC(=O)C(c1cc(C(F)(F)F)cc(C(F)(F)F)c1)c1ccc(SCc2ccco2)nn1 (centres unmarked) [Compound 301]
pIC50 (activated p38 [1]): 5.00 to 6.00

OC(c1ccccc1)c1ccc(Nc2c(F)cccc2F)nc1 (centres unmarked) [Compound 201]
pIC50 (activated p38 [1]): ≥ 6.00

O=C(c1ccccc1)c1ccc(N(C(=O)CCc2ccccc2)c2c(F)cccc2F)nc1 [Compound 625]
pKi (activated p38 [2]): 5.00 to 6.00

O=C(c1ccc(N(C(=O)CCc2ccccc2)c2c(F)cccc2F)nc1)c1sccc1-n1cccc1 [Compound 633]
pKi (activated p38 [2]): 5.00 to 6.00

Cc1cccc(C(=O)c2ccc(N(C(=O)C(C)(C)C)c3c(F)cccc3F)nc2)c1 [Compound 604]
pIC50 (activated p38 [1]): ≥ 6.00

O=C(c1ccc(Nc2c(F)cccc2F)nc1)c1sccc1-n1cccc1 [Compound 116]
pIC50 (activated p38 [1]): ≥ 6.00

COC(=O)CCC(=O)N(c1ccc(C(=O)c2cccc(C)c2)cn1)c1c(F)cccc1F [Compound 608]
pIC50 (activated p38 [1]): 5.00 to 6.00

O=C(c1ccc(N(C(=O)c2sc3ccccc3c2Cl)c2c(F)cccc2F)nc1)c1sccc1-n1cccc1 [Compound 622]
pIC50 (activated p38 [1]): ≥ 6.00

O=C(c1ccc(N(C(=O)OCc2ccccc2)c2c(F)cccc2F)nc1)c1ccccc1Cl [Compound 631]
pKi (activated p38 [2]): 5.00 to 6.00

O=C(c1ccccc1)c1ccc(N(C(=O)Cc2ccc(F)cc2)c2c(F)cccc2F)nc1 [Compound 626]
pKi (activated p38 [2]): 5.00 to 6.00

Cc1cccc(C(=O)c2ccc(N(C(=O)c3ccc(Br)cc3)c3c(F)cccc3F)nc2)c1 [Compound 606]
pIC50 (activated p38 [1]): ≤ 5.00

COC(=O)CCC(=O)N(c1ccc(C(=O)c2sccc2-n2cccc2)cn1)c1c(F)cccc1F [Compound 621]
pIC50 (activated p38 [1]): 5.00 to 6.00

O=C(c1ccccc1)c1ccc(Nc2c(F)cccc2F)nc1 [Compound 101, (6-(2,6-Difluorophenylamino)-pyridin-3-yl]-phenylmethanone]
pIC50 (activated p38 [1]): ≥ 6.00

CC(C)CC(=O)c1ccc(Nc2c(F)cccc2F)nc1 [Compound 119]
pIC50 (activated p38 [1]): ≥ 6.00

O=C(c1ccc(N(C(=O)CCc2ccccc2)c2c(F)cccc2F)nc1)c1ccccc1Cl [Compound 629]
pKi (activated p38 [2]): 5.00 to 6.00

O=C(c1ccc(Nc2c(F)cccc2F)nc1)c1ccc(Cl)c(Cl)c1 [Compound 109]
pIC50 (activated p38 [1]): ≤ 5.00

Cc1cccc(C(=O)c2ccc(N(C(=O)c3sc4ccccc4c3Cl)c3c(F)cccc3F)nc2)c1 [Compound 609]
pIC50 (activated p38 [1]): 5.00 to 6.00

Cc1cc(C(=O)c2ccc(N(C(=O)c3ccc(Br)cc3)c3c(F)cccc3F)nc2)ccc1Cl [Compound 615]
pIC50 (activated p38 [1]): ≤ 5.00

NC(=O)N(c1ccc(C#CCOc2c(Cl)cccc2Cl)cn1)c1c(F)cccc1F [Compound 402]
pIC50 (activated p38 [1]): ≤ 5.00

O=C(c1ccc(N(C(=O)c2cccc(C(F)(F)F)c2)c2c(F)cccc2F)nc1)c1sccc1-n1cccc1 [Compound 623]
pIC50 (activated p38 [1]): ≥ 6.00

Cc1cccc(C(=O)c2ccc(N(C(=O)c3ccccc3)c3c(F)cccc3F)nc2)c1 [Compound 601]
pIC50 (activated p38 [1]): 5.00 to 6.00

O=C(c1ccc(Br)cc1)c1ccc(Nc2c(F)cccc2F)nc1 [Compound 106]
pIC50 (activated p38 [1]): ≥ 6.00

O=C(c1ccccc1)c1ccc(N(C(=O)OCc2ccccc2)c2c(F)cccc2F)nc1 [Compound 627]
pKi (activated p38 [2]): 5.00 to 6.00

O=C(c1ccc(N(C(=O)Cc2ccc(F)cc2)c2c(F)cccc2F)nc1)c1sccc1-n1cccc1 [Compound 634]
pKi (activated p38 [2]): 5.00 to 6.00

O=C(c1ccc(N(C(=O)Cc2ccc(F)cc2)c2c(F)cccc2F)nc1)c1ccccc1Cl [Compound 630]
pKi (activated p38 [2]): 5.00 to 6.00

Cc1cccc(C(=O)c2ccc(N(C(=O)c3ccc(F)c(C(F)(F)F)c3)c3c(F)cccc3F)nc2)c1 [Compound 610]
pIC50 (activated p38 [1]): ≥ 6.00

CC(Oc1ccccc1)C(=O)N(c1ccc(C(=O)c2sccc2-n2cccc2)cn1)c1c(F)cccc1F (centres unmarked) [Compound 624]
pIC50 (activated p38 [1]): ≥ 6.00

Fc1cccc(F)c1Nc1ccc(Sc2ccccc2)cn1 [Compound 503]
pIC50 (activated p38 [1]): ≥ 6.00

Cc1cc(C(=O)c2ccc(N(C(=O)C(C)Oc3ccccc3)c3c(F)cccc3F)nc2)ccc1Cl (centres unmarked) [Compound 617]
pIC50 (activated p38 [1]): 5.00 to 6.00

[O-][S+](c1ccccc1)c1ccc(Nc2c(F)cccc2F)nc1 (centres unmarked) [Compound 501]
pIC50 (activated p38 [1]): ≤ 5.00

CC(=O)N(c1ccc(C(=O)c2cccc(C)c2)cn1)c1c(F)cccc1F [Compound 605]
pIC50 (activated p38 [1]): ≥ 6.00

CCOC(=O)C(=O)N(c1ccc(C(=O)c2cc(OC)cc(OC)c2)cn1)c1c(F)cccc1F [Compound 619]
pIC50 (activated p38 [1]): ≥ 6.00

O=C(c1ccc(-c2ccccc2)cc1)c1ccc(Nc2c(F)cccc2F)nc1 [Compound 108]
pIC50 (activated p38 [1]): ≥ 6.00

O=C(c1ccc(Nc2c(F)cccc2F)nc1)c1ccc2ccccc2c1 [Compound 110]
pIC50 (activated p38 [1]): ≥ 6.00

O=C(c1ccc(N(C(=O)c2ccc(Br)cc2)c2c(F)cccc2F)nc1)c1sccc1-n1cccc1 [Compound 620]
pIC50 (activated p38 [1]): ≥ 6.00

CC(C)(C)c1ccc(C(=O)c2ccc(Nc3c(F)cccc3F)nc2)cc1 [Compound 105]
pIC50 (activated p38 [1]): ≥ 6.00

O=C(c1ccc(Nc2c(F)cccc2F)nc1)c1cccc(Cl)c1 [Compound 102]
pIC50 (activated p38 [1]): ≥ 6.00

Cc1cccc(C(=O)c2ccc(N(C(=O)c3snnc3C)c3c(F)cccc3F)nc2)c1 [Compound 603]
pIC50 (activated p38 [1]): 5.00 to 6.00

Cc1cccc(C(=O)c2ccc(Nc3c(F)cccc3F)nc2)c1 [Compound 104]
pIC50 (activated p38 [1]): ≥ 6.00

Cc1cccc(C(=O)c2ccc(N(C(=O)c3cccc(C(F)(F)F)c3)c3c(F)cccc3F)nc2)c1 [Compound 611]
pIC50 (activated p38 [1]): ≥ 6.00

COCC(=O)N(c1ccc(C(=O)c2cccc(C)c2)cn1)c1c(F)cccc1F [Compound 602]
pIC50 (activated p38 [1]): 5.00 to 6.00

COC(=O)CCC(=O)N(c1ccc(C(=O)c2ccc(Cl)c(C)c2)cn1)c1c(F)cccc1F [Compound 616]
pIC50 (activated p38 [1]): ≤ 5.00

CCCCc1ccc(Nc2c(F)cccc2F)nc1 [Compound 401]
pIC50 (activated p38 [1]): ≤ 5.00

O=C(c1ccccc1)c1ccc(N(C(=O)Oc2ccc(F)cc2)c2c(F)cccc2F)nc1 [Compound 628]
pKi (activated p38 [2]): 5.00 to 6.00

COc1ccc(C(=O)c2ccc(Nc3c(F)cccc3F)nc2)cc1OC [Compound 111]
pIC50 (activated p38 [1]): 5.00 to 6.00

O=S(=O)(c1ccccc1)c1ccc(Nc2c(F)cccc2F)nc1 [Compound 502]
pIC50 (activated p38 [1]): ≤ 5.00

O=C(c1ccc(Nc2c(F)cccc2F)nc1)c1cc(Cl)ccc1Cl [Compound 113]
pIC50 (activated p38 [1]): ≥ 6.00

O=C(c1ccc(Nc2c(F)cccc2F)nc1)c1ccccc1Cl [Compound 107]
pIC50 (activated p38 [1]): ≥ 6.00

COc1cc(OC)cc(C(=O)c2ccc(Nc3c(F)cccc3F)nc2)c1 [Compound 115]
pIC50 (activated p38 [1]): ≥ 6.00

O=C(c1ccc(Nc2c(F)cccc2F)nc1)c1cc2ccccc2s1 [Compound 120]
pIC50 (activated p38 [1]): 5.00 to 6.00

Cc1cccc(C(=O)c2ccc(N(C(=O)CC(C)C)c3c(F)cccc3F)nc2)c1 [Compound 614]
pIC50 (activated p38 [1]): ≥ 6.00

O=C(c1ccc(N(C(=O)Oc2ccc(F)cc2)c2c(F)cccc2F)nc1)c1ccccc1Cl [Compound 632]
pKi (activated p38 [2]): 5.00 to 6.00

CCOC(=O)C(=O)N(c1ccc(C(=O)c2cccc(C)c2)cn1)c1c(F)cccc1F [Compound 613]
pIC50 (activated p38 [1]): ≥ 6.00

Cc1cccc(C(=O)c2ccc(N(C(=O)C(C)Oc3ccccc3)c3c(F)cccc3F)nc2)c1 (centres unmarked) [Compound 612]
pIC50 (activated p38 [1]): ≤ 5.00

O=C(c1ccc(N(C(=O)OCc2ccccc2)c2c(F)cccc2F)nc1)c1sccc1-n1cccc1 [Compound 635]
pKi (activated p38 [2]): 5.00 to 6.00

COc1cc(C(=O)c2ccc(Nc3c(F)cccc3F)nc2)cc(OC)c1OC [Compound 118]
pIC50 (activated p38 [1]): 5.00 to 6.00

Cc1cc(C(=O)c2ccc(Nc3c(F)cccc3F)nc2)ccc1Cl [Compound 114]
pIC50 (activated p38 [1]): ≥ 6.00
